One experiment addresses T1, EGFR(T790M/L858R) (Homo sapiens, UniProt P00533, L858R/T790M).
T1 construct: purchased BPS Bioscience 40322
Kind of experiment: In vitro non-radioactive kinase assay, EGFR(T790M/L858R) Kinase Assay Kit (BPS Bioscience). It counts as biochemical. Conditions: for IC50: EGFR(T790M/L858R) Kinase Assay Kit, concentration inhibiting 50% enzyme activity, read-out: IC50 (μM) ± Std. Dev.; for Activity on mutant EGFR in kinase assay (in words): compared with compound 4, five independent experiments. The method, then: In vitro kinase assays were performed using the EGFR(T790M/L858R) Kinase Assay Kit (BPS
Bioscience, Cat. #40322) in the presenc e of compounds or vehicle . Assays conditions were set
according to the manufacturer’s instructions. Dose -response curves were fitted by non -linear
regression of normalized enzyme activity vs log[inhibitor] data, using GraphPad Prism software. […]

For experiment [1], the system named is T790M/L858R double mutant EGFR. Set-up: method as in PMID 29766737. Conditions: type III allosteric inhibitor of T790M/L858R double mutant EGFR; cited from earlier work.
A further experiment deals with wt EGFR H1299 cell line. Also on record: method as in PMID 29766737. The settings on record: read-out: IC50 anti-proliferative activity; cited from earlier work.
The test system of experiment [2] is mutant EGFR H1650 cell line. Also on record: method as in PMID 29766737. The settings on record: read-out: IC50 anti-proliferative activity; cited from earlier work.
The test system of experiment [3] is double mutant H1975 cell line. Set-up: method as in PMID 29766737. Conditions: read-out: IC50 anti-proliferative activity; cited from earlier work.
In experiment [4] the test system is H1975 lung cancer cell line expressing the double mutant L858R/T790M EGFR. Kind of experiment: Cell proliferation / viability by MTS assay in H1975 cells. It counts as cell-based. The settings on record: 72 hours, micromolar concentrations. As to the method:
Compounds 15 and 18 were then tested in cell proliferation assays on the H1975 lung cancer cell line expressing the double mutant L858R/T790M EGFR.
(§1) Figure 3. Activity of compounds 15 and 18 in H1975 cells. (A) Cell viability was measured by MTS assay. (B) EGFR phosphorylation was assessed by Western blot after 8-h incubation with the compounds (10 µM). Total EGFR and actin are shown for loading control. […]
(§2) 3-nitroaniline 1a (119 mg); 4-fluoro-3-(iminomethyl)phenyl acetate 2h (181 mg); 5-fluoro-2-methyl-1H-indole 3b (149 mg); purification: procedur b, […]
In vitro kinase assays were performed using the EGFR(T790M/L858R) Kinase Assay Kit (BPS Bioscience, Cat. #40322) in the presenc e of compounds or vehicle . Assays conditions were set according to the manufacturer’s instructions. […]
(§3) For cytotoxicity assays, compounds were added to cells in 96-well plates for 72 hours. Cell viability was measured by MTS assay using the CellTiter 96® AQueous One Solution Cell Proliferation Assay System (Promega, Madison, WI, USA) according to instructions. Inhibition of EGFR was assessed by Western blotting after incubating the cells with the compounds for 8 hours. […]
(§4) Chemiluminescence was detected using a ChemiDoc XRS+ System (Bio-Rad, Hercules, CA, USA) and Image Lab software (Bio-Rad). […]

Experiment [5] deals with phospho-EGFR (Tyr1068) in H1975 cells. Kind of experiment: EGFR phosphorylation by Western blot in H1975 cells. It counts as cell-based. Conditions: Western blot after 8-h incubation, 10 µM. The method, then:
as §1, §2
In vitro kinase assays were performed using the EGFR(T790M/L858R) Kinase Assay Kit (BPS Bioscience, Cat. #40322) in the presenc e of compounds or vehicle . Assays conditions were set according to the manufacturer’s instructions. Dose -response curves were fitted by non -linear regression of normalized enzyme activity vs log[inhibitor] data, using GraphPad Prism software.
as §3, §4

Regarding `Cc1[nH]c2ccccc2c1C(Nc1cccc([N+](=O)[O-])c1)c1ccccn1` (stereo not shown) [Compound 4], the concentration for half-maximal inhibition (IC50) was 154 ± 11 µM on EGFR(T790M/L858R), 14.5 ± 0.3 µM in the experiment with wt EGFR H1299 cell line, 19 ± 2 µM in experiment [2] and 24 ± 2 µM in experiment [3]. The EC50 in experiment [1] was 6.2 ± 0.5 µM.
As to `Cc1[nH]c2ccc(F)cc2c1C(Nc1cccc([N+](=O)[O-])c1)c1ccccn1` (stereo not shown) [Compound 7], the half-maximal inhibitory concentration (IC50) on EGFR(T790M/L858R) was 123 ± 17 µM.
Still for that read-out and setting: the value for `O=[N+]([O-])c1cccc(NC(c2ccccn2)c2c[nH]c3ccccc23)c1` (stereo not shown) [Compound 8] was 95 ± 31 µM.
In the case of `Cc1[nH]c2ccccc2c1C(Nc1cccc([N+](=O)[O-])c1)c1ncccc1O` (stereo not shown) [Compound 12], the IC50 on EGFR(T790M/L858R) came out at 96 ± 30 µM.
As for `Cc1[nH]c2ccccc2c1C(Nc1cccc([N+](=O)[O-])c1)c1ccccc1` (stereo not shown) [Compound 13], at EGFR(T790M/L858R), the “Activity on mutant EGFR in kinase assay (in words)” value (shortened to “Activity on mutant EGFR”) is on record as “lack of activity”.
Same read-out and setting: the entry for `COc1ccc(F)cc1C(Nc1cccc([N+](=O)[O-])c1)c1c(C)[nH]c2ccccc12` (stereo not shown) [Compound 14] is “lack of activity”.
For `Cc1[nH]c2ccccc2c1C(Nc1cccc([N+](=O)[O-])c1)c1ccccc1O` (stereo not shown) [Compound 15], on EGFR(T790M/L858R), the IC50 came to 33 ± 4 µM and the “Activity on mutant EGFR” value is “significantly improved activity with respect to 4”. Further, the “Inhibition of cell proliferation (in words)” value in experiment [4] is recorded as “inhibited cell proliferation”. Moreover, in experiment [5], the “Inhibition of EGFR phosphorylation (in words)” value is listed as “inhibited”.
Take `Cc1[nH]c2ccccc2c1C(Nc1cccc([N+](=O)[O-])c1)c1cc(F)ccc1O` (stereo not shown) [Compound 17]: the concentration for half-maximal inhibition (IC50) at EGFR(T790M/L858R) turned out to be 63 ± 12 µM.
For `Cc1[nH]c2ccccc2c1C(Nc1cccc([N+](=O)[O-])c1)c1cc(O)ccc1F` (stereo not shown) [Compound 18], on EGFR(T790M/L858R), the IC50 amounted to 27 ± 5 µM and the “Activity on mutant EGFR” value was “significantly improved activity with respect to 4”. The “Inhibition of cell proliferation (in words)” value in experiment [4] is given as “inhibited cell proliferation”. The “Inhibition of EGFR phosphorylation (in words)” value in experiment [5] is given as “inhibited”.

(Values after PMC9665079, “Structure-activity exploration of a small-molecule allosteric inhibitor of T790M/L858R double mutant EGFR” (Journal of Enzyme Inhibition and Medicinal Chemistry, 2022).)
